Like-named read-outs stand apart in the source and are kept apart here.
Assays:
[1] = TAMRAD study; cited from earlier work
[2] = tested on: metastatic breast cancer ER+/HER2− progressed after aromatase inhibitor; settings: 724 patients randomized 2:1; cited from earlier work
[3] = tested on: breast tumours with low or high LKB1 expression; test: TAMRAD translational study: time to progression by LKB1 H score (IHC) in primary tumour; format: in vivo, human
Protocol: Paraffin embedded breast tumors were serially sectioned at a thickness of 4 μm. After deparaffinization and rehydration, tissue sections were boiled in low pH buffer (Dako) using a PT Link at 97° C. for 30 minutes. For blocking endogenous peroxidases, the slides were incubated in 5% hydrogen peroxide in sterile water. The slides were then incubated at room temperature for one hour with the anti-LKB1 polyclonal rabbit antibody (Ref: Ab58786, Abcam, Cambridge, UK) diluted at 1/50. After rinsing in Phosphate Buffer Saline, the slides were incubated with a biotinylated secondary antibody bound to a streptavidin peroxidase conjugate (Envision Flex kit Ref: K800021-2, Dako, Trappes, France). […] Sections were counterstained with hematoxylin.
All slides were read by a single senior pathologist who was blinded to the clinical data. For comparison of the staining among tissues, samples were scored semi-quantitatively using a complete histological score (H score) that considered both the staining intensity and the percentage of cells stained at a specific range of intensities. For each case, the complete H score was defined as the products of the percentage of cells stained at a given staining intensity (0-100) and the staining intensity score (0, none; 1, weak, 2, moderate, and 3, intense). […]

[4] = tested on: hormone receptor-positive and human epidermal growth factor receptor type 2 (HER2)-negative mBC; settings: cited from earlier work

In the case of `CO[C@H]1C[C@@H]2CC[C@@H](C)[C@@](O)(O2)C(=O)C(=O)N2CCCC[C@H]2C(=O)O[C@H]([C@H](C)C[C@@H]2CC[C@@H](OCCO)[C@H](OC)C2)CC(=O)[C@H](C)/C=C(\C)[C@@H](O)[C@@H](OC)C(=O)[C@H](C)C[C@H](C)/C=C/C=C/C=C/1C` [everolimus, 42-O-(2-hydroxyethyl)rapamycin], the “patients who had to decrease the dose of everolimus” value [1] is given as 20% and the “patients who had to stop everolimus due to toxicities” value [1] is given as 20%.
In the case of exemestane [exemestane and placebo], the “progression free survival (PFS), local investigator assessment” value [2] is listed as 2.8 months.
In the case of `CC/C(=C(\c1ccccc1)c1ccc(OCCN(C)C)cc1)c1ccccc1` [tamoxifen], the time to progression ([3]; patients with H Score above 90, p=0.35) is listed as 5.5 months, the time to progression ([3]; patients with LKB1 H Score below or at 90, P=0.03) is listed as 4.5 months and the “median TTP” value ([4]; ITT population, exploratory P=0.002) is listed as 4.5 months. The “clinical benefit rate (CBR) at 6 months” value ([4]; ITT population, exploratory P=0.045) was 42%, the “time-to-progression (TTP)” value ([4]; TAMRAD trial, 111 patients) was 4.5 months and the “median OS” value ([4]; last update of OS in September 2011) was 32.9 months. The “clinical benefit rate (CBR) at 6 months” value ([4]; per-protocol population) was 41%.
